Patent publication US20150152083A1, “Compounds and Compositions for Modulating EGFR Activity” (IRM LLC, A Delaware Limited Liability Company, priority 2012, published 2015)

How the values were obtained:
EGFR(L858R/T790M) [1] = target: T1, EGFR(L858R/T790M) (Homo sapiens, UniProt P00533, L858R/T790M); assay: EGFR biochemical assay (HTRF), IC50 determination; parameters: purchased from Carna (GST-a.a. 669-1210); purchased Carna; conditions: 10 μM ATP
Experimental: All EGFR biochemical assays were carried out by HTRF method. The EGFR(L858RT790M) enzyme were purchased from Carna (GST-a.a. 669-1210). The substrate peptide Biotin-TK-peptide was purchased from Cis-Bio. The reaction mixtures contained 1 μM peptide substrate, 10 μM ATP, and 0.036 nM EGFR(L858RT790M) in the reaction buffer (50 mM HEPES pH 7.1, 10 mM MgCl2, 0.01% BSA, 1 mM TCEP and 0.1 mM Na3VO4) at a final volume of 10 μL. All reactions were carried out at room temperature in white ProxiPlate™ 384-well Plus plates (PerkinElmer) and were quenched with 5 μL of 0.2 M EDTA at 60 min Five μL of the detection reagents (2.5 ng PT66K and 0.05 μg SAXL per well) were added, the plates were incubated at room temperature for 1 h and then read in EnVision reader. […] For no-preincubation condition, the compounds were added to the assay solution containing ATP and peptide, and the reaction was initiated by addition of enzyme. For pre-incubation conditions, the compounds were added to the assay solution containing enzyme and peptide, and pre-incubated at room temperature for desired period of time, then the reaction was initiated by addition of ATP.
Target sequence in this assay (P00533 669-1210 T790M/L858R): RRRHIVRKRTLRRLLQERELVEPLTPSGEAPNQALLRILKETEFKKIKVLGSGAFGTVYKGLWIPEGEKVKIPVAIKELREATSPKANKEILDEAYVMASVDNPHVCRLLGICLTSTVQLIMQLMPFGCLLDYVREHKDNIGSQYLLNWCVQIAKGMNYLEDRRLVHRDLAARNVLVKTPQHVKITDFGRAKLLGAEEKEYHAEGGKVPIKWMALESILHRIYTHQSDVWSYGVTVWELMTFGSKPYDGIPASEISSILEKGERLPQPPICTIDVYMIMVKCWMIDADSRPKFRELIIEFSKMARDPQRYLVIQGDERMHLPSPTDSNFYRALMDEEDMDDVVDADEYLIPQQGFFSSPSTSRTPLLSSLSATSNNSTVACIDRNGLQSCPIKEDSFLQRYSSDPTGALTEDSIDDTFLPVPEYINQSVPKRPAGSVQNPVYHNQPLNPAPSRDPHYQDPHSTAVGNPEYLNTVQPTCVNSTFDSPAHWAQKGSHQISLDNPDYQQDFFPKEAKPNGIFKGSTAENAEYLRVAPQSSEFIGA

EGFR (L858R) = target: T2, EGFR (L858R) (Homo sapiens, UniProt P00533, L858R); assay: EGFR target modulation in engineered NIH3T3 cell lines (phospho-EGFR AlphaLISA); type: cell-based; conditions: NIH3T3 cells expressing human EGFR L858R; 3 hours compound
T2 construct: host or cells: NIH3T3
T2 sequence (P00533 25-1210 L858R): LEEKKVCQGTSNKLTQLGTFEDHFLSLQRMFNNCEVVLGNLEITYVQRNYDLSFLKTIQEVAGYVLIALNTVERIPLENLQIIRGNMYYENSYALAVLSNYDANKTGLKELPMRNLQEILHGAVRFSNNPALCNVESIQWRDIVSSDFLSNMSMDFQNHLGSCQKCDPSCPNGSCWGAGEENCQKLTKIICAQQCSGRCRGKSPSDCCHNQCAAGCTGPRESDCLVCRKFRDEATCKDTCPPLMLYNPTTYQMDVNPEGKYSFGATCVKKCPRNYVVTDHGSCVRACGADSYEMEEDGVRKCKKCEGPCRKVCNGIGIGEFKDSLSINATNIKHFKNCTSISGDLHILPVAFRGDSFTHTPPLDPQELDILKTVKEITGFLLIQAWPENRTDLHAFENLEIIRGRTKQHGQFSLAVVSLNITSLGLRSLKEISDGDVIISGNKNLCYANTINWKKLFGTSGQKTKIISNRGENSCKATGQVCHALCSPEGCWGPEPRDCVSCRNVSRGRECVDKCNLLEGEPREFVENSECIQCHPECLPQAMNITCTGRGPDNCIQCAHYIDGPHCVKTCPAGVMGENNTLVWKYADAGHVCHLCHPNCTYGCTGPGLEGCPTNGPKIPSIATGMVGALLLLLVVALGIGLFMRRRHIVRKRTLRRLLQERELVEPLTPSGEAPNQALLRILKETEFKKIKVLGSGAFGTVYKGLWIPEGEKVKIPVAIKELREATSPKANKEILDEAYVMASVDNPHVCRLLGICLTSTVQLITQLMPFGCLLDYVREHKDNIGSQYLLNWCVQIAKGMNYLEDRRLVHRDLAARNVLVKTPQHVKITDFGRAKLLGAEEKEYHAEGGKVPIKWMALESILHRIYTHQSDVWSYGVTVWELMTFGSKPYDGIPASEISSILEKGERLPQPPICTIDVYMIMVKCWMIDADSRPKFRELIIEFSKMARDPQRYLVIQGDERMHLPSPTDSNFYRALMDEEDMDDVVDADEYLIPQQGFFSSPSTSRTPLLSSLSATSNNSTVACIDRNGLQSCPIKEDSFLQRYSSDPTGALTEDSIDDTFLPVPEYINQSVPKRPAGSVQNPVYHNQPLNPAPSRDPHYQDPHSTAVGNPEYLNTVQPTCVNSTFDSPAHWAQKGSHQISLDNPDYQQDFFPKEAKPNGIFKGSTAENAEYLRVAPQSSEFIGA
Experimental: (§1) EGFR Target Modulation in Engineered NIH3T3 Cell Lines
(§2) NIH3T3 cell lines expressing human EGFR (WT, L858R, and L858RT790M) (obtained from Matthew Meyerson's Lab at DFCI) were maintained in 10% FBS/DMEM supplemented with 100 μg/ml Penicillin/Streptomycin (Hyclone #SV30010) and 2 μg/ml Puromycin. The cells were harvested with 0.05% Trypsin/EDTA (Hyclone #SH30236.01), re-suspended in 5% FBS/DMEM Pen/Strep without Puromycin and plated at 9,000 cells per well in 50 μl of media in a 384-well black plate with clear bottoms (Greiner #789068G). The cells were allowed to incubate overnight in a 37° C., 5% CO2 humidified tissue culture incubator. A 12-point test compound curve was prepared by serial diluting a 10 μM stock 1:3 in DMSO in a 384-well compound plate (Greiner #789201L). The serial diluted compounds were transferred to the plate containing cells by using a 50 nl Pin Head device (Perkin Elmer) and the cells were placed back in the incubator for 3 hours. Only the EGFR WT-expressing cells were induced with 50 ng/ml EGF (Preprotech #AF-100-15) for 5 minutes before lysis. The media was removed and cells were lysed in 25 μl of Lysis buffer containing protease and phosphatase inhibitors (1% Triton X-100, 20 mM Tris, pH 7.5, 1 mM EDTA, 1 mM EGTA, 150 mM NaCl, 1× complete cocktail inhibitor (Roche #11 697 498 001), 1× Phosphatase Inhibitor Cocktail Set II and Set III (Sigma #P5726 and #P0044)). The plates were shaken at 4° C. for 5 minutes with foil top at maximum speed. An aliquot of 5 μl from each well was transferred to ProxiPlate™ 384-well Plus plates (PE #6008289). The plates were sealed with a foil top and frozen at −80° C. and thawed when needed.
(§3) The frozen aliquots were thawed and briefly centrifuged. All antibodies and beads were diluted in 1× AlphaLISA HiBlock Buffer (PE #AL004C). Biotinylated anti-phospho-EGFR (Y1068) (Cell Signaling #4031) was incubated with the lysate for 1 hour at room temperature at 1 nM final concentration. Goat anti-total EGFR (R&D Systems #AF231) was added and allowed to equilibrate for 1 hour at room temperature at 1 nM final concentration. Then, 10 μl of mixed beads (AlphaScreen Streptavidin Donor Beads (PE #6760002S) and AlphaLISA anti-goat IgG Acceptor Beads (PE #AL107C)) was equilibrated for 1.5 hours before reading on EnVision plate reader using the built-in settings for AlphaScreen.
(§4) Cells untreated (L858R and L858RT790M) or EGF-induced (WT) were set to 100% maximum response. For a negative control, 10 μM HKI-272 was used to normalize data to 0% of maximum response. With these parameters, the IC50's for each compound in each cell line was calculated using non-linear curve fitting analysis.

EGFR (WT) = target: T3, EGFR (WT) (Homo sapiens, UniProt P00533); assay: as above; type: cell-based; conditions: NIH3T3 cells expressing human EGFR WT; 3 hours compound; induced with 50 ng/ml EGF
T3 construct: host or cells: NIH3T3
T3 sequence (P00533 25-1210): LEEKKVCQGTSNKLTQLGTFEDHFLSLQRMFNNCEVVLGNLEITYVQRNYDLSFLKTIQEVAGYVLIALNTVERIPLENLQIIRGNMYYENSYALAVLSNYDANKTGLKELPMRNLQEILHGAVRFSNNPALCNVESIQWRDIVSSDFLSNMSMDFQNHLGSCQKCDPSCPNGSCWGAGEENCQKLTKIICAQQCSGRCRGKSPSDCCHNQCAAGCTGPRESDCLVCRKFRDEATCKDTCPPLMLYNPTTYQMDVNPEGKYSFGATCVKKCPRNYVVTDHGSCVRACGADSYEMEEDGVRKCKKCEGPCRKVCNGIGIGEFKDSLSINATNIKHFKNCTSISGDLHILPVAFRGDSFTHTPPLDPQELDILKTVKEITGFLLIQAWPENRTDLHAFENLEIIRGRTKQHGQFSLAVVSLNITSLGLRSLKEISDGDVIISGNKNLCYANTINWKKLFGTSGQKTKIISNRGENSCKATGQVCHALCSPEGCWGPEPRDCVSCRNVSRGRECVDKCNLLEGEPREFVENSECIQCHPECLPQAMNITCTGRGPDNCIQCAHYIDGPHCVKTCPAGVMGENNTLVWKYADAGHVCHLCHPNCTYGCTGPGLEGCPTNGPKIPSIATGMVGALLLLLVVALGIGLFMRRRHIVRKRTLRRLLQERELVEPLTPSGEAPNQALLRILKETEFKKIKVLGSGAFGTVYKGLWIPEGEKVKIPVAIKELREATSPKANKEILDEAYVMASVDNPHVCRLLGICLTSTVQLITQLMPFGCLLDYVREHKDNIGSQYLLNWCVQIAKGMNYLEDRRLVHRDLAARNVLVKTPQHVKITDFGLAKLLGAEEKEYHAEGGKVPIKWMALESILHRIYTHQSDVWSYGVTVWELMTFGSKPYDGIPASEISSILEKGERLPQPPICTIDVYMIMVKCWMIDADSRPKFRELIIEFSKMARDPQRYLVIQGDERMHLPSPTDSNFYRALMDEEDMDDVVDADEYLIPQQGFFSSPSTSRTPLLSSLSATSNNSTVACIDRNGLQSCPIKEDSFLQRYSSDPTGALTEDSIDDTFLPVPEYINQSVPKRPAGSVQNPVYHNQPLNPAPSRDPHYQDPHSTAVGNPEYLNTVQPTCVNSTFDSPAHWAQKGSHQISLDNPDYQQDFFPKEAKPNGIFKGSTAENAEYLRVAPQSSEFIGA
Experimental: as §1, §2, §3, §4

EGFR(L858R/T790M) [2] = target: T1, EGFR(L858R/T790M); assay: as above; type: cell-based; parameters: host or cells: NIH3T3; conditions: NIH3T3 cells expressing human EGFR L858R/T790M; 3 hours compound
Experimental: as §1, §2, §3, §4
Target sequence in this assay (P00533 25-1210 T790M/L858R): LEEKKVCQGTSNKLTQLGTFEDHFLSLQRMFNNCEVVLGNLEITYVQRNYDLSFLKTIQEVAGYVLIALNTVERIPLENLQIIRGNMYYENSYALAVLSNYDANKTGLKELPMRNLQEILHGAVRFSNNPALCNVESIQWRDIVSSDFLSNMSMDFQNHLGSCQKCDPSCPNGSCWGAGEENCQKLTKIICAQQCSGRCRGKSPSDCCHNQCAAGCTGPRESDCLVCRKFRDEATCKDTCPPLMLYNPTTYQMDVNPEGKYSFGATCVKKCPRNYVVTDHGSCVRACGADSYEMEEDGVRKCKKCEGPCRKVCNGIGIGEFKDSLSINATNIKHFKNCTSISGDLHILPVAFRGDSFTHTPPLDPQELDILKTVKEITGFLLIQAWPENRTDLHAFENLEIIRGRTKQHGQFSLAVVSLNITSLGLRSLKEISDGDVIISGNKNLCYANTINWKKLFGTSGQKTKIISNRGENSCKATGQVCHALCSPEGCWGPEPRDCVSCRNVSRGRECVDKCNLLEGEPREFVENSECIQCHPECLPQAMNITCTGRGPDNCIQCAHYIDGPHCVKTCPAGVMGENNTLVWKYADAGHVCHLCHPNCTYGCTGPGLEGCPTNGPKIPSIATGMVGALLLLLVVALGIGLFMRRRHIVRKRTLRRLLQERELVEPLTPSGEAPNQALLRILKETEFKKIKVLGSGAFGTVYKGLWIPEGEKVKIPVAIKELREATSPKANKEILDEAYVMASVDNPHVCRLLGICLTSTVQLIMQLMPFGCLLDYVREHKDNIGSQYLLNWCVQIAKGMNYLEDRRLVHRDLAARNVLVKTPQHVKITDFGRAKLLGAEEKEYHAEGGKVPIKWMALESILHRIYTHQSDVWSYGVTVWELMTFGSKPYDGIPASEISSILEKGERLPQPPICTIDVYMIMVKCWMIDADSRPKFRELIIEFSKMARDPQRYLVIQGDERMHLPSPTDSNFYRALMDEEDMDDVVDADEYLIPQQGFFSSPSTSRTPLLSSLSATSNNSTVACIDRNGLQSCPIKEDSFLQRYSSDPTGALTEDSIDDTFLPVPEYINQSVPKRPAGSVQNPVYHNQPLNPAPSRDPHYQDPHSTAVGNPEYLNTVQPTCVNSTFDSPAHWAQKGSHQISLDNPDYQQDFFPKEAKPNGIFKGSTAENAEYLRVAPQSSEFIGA

[3] = EGFR (L858R/T790M) IC50 (μM) 90 min pre-incubation, 90 min pre-incubation
[4] = no pre-incubation, read-out: EGFR (L858R/T790M) IC50 (μM) No pre-incubation

Compound	IC50 (EGFR(L858R/T790M) [1]; [3]) [µM]	IC50 (EGFR(L858R/T790M) [1]; [4]) [µM]	IC50 (EGFR (L858R)) [µM]	IC50 (EGFR (WT)) [µM]	IC50 (EGFR(L858R/T790M) [2]) [µM]
C=CC(=O)Nc1cccc(-n2c(NC(=O)c3ccc(F)cc3)nc3cc(C)ccc32)c1 [Example 1, N-(1-(3-acrylamidophenyl)-5-methyl-1H-benzo[d]imidazol-2-yl)-4-fluorobenzamide]	0.002	0.016	0.053	> 10	0.037
C=CC(=O)Nc1cccc(-n2c(NC(=O)c3cccc(F)c3)nc3cc(C)ccc32)c1 [Example 2-1, 3-fluoro-N-{5-methyl-1-[3-(prop-2-enamido)phenyl]-1H-1,3-benzodiazol-2-yl}benzamide]	0.003	0.023	0.33	> 10	0.028
C=CC(=O)Nc1cccc(-n2c(NC(=O)c3ccc(F)c(F)c3)nc3cc(C)ccc32)c1 [Example 2-2, 3,4-difluoro-N-{5-methyl-1-[3-(prop-2-enamido)phenyl]-1H-1,3-benzodiazol-2-yl}benzamide]	0.002	0.054	0.2	> 10	0.08
C=CC(=O)Nc1cccc(-n2c(NC(=O)c3ccc(C)cc3)nc3cc(C)ccc32)c1 [Example 2-3, 4-methyl-N-{5-methyl-1-[3-(prop-2-enamido)phenyl]-1H-1,3-benzodiazol-2-yl}benzamide]	0.034	0.39	0.77	> 10	0.98
C=CC(=O)Nc1cccc(-n2c(NC(=O)c3ccc(Cl)c(Cl)c3)nc3cc(C)ccc32)c1 [Example 2-4, 3,4-dichloro-N-{5-methyl-1-[3-(prop-2-enamido)phenyl]-1H-1,3-benzodiazol-2-yl}benzamide]	0.023	0.27	0.33	> 10	0.22
C=CC(=O)Nc1cccc(-n2c(NC(=O)c3cccc(C)c3)nc3cc(C)ccc32)c1 [Example 2-5, 3-methyl-N-{5-methyl-1-[3-(prop-2-enamido)phenyl]-1H-1,3-benzodiazol-2-yl}benzamide]	0.012	0.14	1.3	> 10	0.17
C=CC(=O)Nc1cccc(-n2c(NC(=O)c3cccc(Oc4ccccc4)c3)nc3cc(C)ccc32)c1 [Example 2-6, N-{5-methyl-1-[3-(prop-2-enamido)phenyl]-1H-1,3-benzodiazol-2-yl}-3-phenoxybenzamide]	< 0.001	0.021	0.27	> 10	0.062

Now from value to molecule:

IC50 (EGFR(L858R/T790M) [1]; [3]) [µM]	IC50 (EGFR(L858R/T790M) [1]; [4]) [µM]	IC50 (EGFR (L858R)) [µM]	IC50 (EGFR (WT)) [µM]	IC50 (EGFR(L858R/T790M) [2]) [µM]	Compound
0.051	0.27	> 3.7	> 10	0.41	C=CC(=O)N[C@@H]1CCC[C@@H](n2c(NC(=O)c3cccc(C(F)(F)F)c3)nc3cc(C)ccc32)C1 (racemic) [Example 8-2, N-{5-methyl-1-[(1S,3S)-3-(prop-2-enamido)cyclohexyl]-1H-1,3-benzodiazol-2-yl}-3-(trifluoromethyl)benzamide]
< 0.001	0.006	0.023	> 10	0.007	C=CC(=O)Nc1cccc(-n2c(NC(=O)c3cccc(-c4ccccc4)c3)nc3cc(C)ccc32)c1 [Example 2-7, N-{5-methyl-1-[3-(prop-2-enamido)phenyl]-1H-1,3-benzodiazol-2-yl}-3-phenylbenzamide]
0.013	0.18	0.64	> 10	0.38	C=CC(=O)Nc1cccc(-n2c(NC(=O)c3ccc4ccccc4c3)nc3cc(C)ccc32)c1 [Example 2-8, N-{5-methyl-1-[3-(prop-2-enamido)phenyl]-1H-1,3-benzodiazol-2-yl}naphthalene-2-carboxamide]
0.006	0.049	0.55	> 10	0.052	C=CC(=O)Nc1cccc(-n2c(NC(=O)c3cccc(C(F)(F)F)c3)nc3cc(C)ccc32)c1 [Example 2-9, N-{5-methyl-1-[3-(prop-2-enamido)phenyl]-1H-1,3-benzodiazol-2-yl}-3-(trifluoromethyl)benzamide]
0.003	0.085	0.66	> 8	0.11	C=CC(=O)N(C)c1cccc(-n2c(NC(=O)c3cccc(C(F)(F)F)c3)nc3cc(C)ccc32)c1 [Example 2-10, N-{5-methyl-1-[3-(N-methylprop-2-enamido)phenyl]-1H-1,3-benzodiazol-2-yl}-3-(trifluoromethyl)benzamide]
0.004	0.057	0.31	> 10	0.079	C=CC(=O)Nc1cccc(-n2c(NC(=O)c3cccc(C(F)(F)F)c3)nc3cccc(C)c32)c1 [Example 2-13, N-{7-methyl-1-[3-(prop-2-enamido)phenyl]-1H-1,3-benzodiazol-2-yl}-3-(trifluoromethyl)benzamide]
0.003	0.028	0.45	> 10	0.036	C=CC(=O)Nc1cccc(-n2c(NC(=O)c3cccc(C(F)(F)F)c3)nc3cc(CO)ccc32)c1 [Example 3, N-(1-(3-acrylamidophenyl)-5-(hydroxymethyl)-1H-benzo[d]imidazol-2-yl)-3-(trifluoromethyl)benzamide]
0.005	0.071	1.1	> 10	0.1	C=CC(=O)Nc1cccc(-n2c(NC(=O)c3cccc(C(F)(F)F)c3)nc3cc(COCC)ccc32)c1 [Example 4, N-(1-(3-acrylamidophenyl)-5-(ethoxymethyl)-1H-benzo[d]imidazol-2-yl)-3-(trifluoromethyl)benzamide]
< 0.001	0.022	0.86	> 10	0.02	C=CC(=O)Nc1cccc(-n2c(NC(=O)c3cccc(C(F)(F)F)c3)nc3cc(COC)ccc32)c1 [Example 5-1, N-[5-(methoxymethyl)-1-[3-(prop-2-enamido)phenyl]-1H-1,3-benzodiazol-2-yl]-3-(trifluoromethyl)benzamide]
0.007	0.039	0.18	> 10	0.013	C=CC(=O)Nc1cccc(-n2c(NC(=O)c3cccc(C(F)(F)F)c3)nc3cc(CN4CCCC4)ccc32)c1 [Example 5-2, N-[1-[3-(prop-2-enamido)phenyl]-5-(pyrrolidin-1-ylmethyl)-1H-1,3-benzodiazol-2-yl]-3-(trifluoromethyl)benzamide]
